# Laboratory results published in article PMC4999862, “Site-specific Isopeptide Bridge Tethering of Chimeric gp41 N-terminal Heptad Repeat Helical Trimers for the Treatment of HIV-1 Infection” (Scientific Reports, 2016).
# Where two headings read alike, the source gives them in different places. Bridge positions count the residues as written; N and C are the ends. I, II: the chains in the order shown.
# Experiments:
# [1] = system: HIV-1 IIIB (subtypes B, X4)
# Description: (§1) Briefly, 1 × 10^4 MT-2 cells were infected with an HIV-1 strain (100 times the half-maximal tissue culture infective dose) in 200 μL of culture medium with or without the serially diluted test compounds overnight. Assay plates were incubated for 72 h, after which 100 μL of culture supernatant was collected from each well and assayed for p24 antigen using ELISA as described previously. The EC50 value of each test compound was calculated using Calcusyn software.
# [2] = system: HIV-1 BaL (subtypes B, R5)
# Description: as §1
# [3] = CD spectroscopy and thermal denaturation of chimeric N-trimers; format: physicochemical; details: for Tm (°C): CD thermal denaturation at 222 nm, 15 °C to 90 °C, PBS pH 7.4, 10 μM; for Helicity (%): CD, PBS pH 7.4, 10 μM peptide
# Description: All measurements were performed on an MOS-450 system (BioLogic, Claix, France) at a 4.0 nm bandwidth, 0.1 nm resolution, 0.1 cm path length, 4.0 s response time and 50 nm/min scanning speed. The individual N- and C-peptides as well as their equimolar mixtures were prepared in PBS (pH 7.4) at a final concentration of 10 μM and incubated at 37 °C for 30 min. Thermal denaturation was monitored by the ellipticity change at 222 nm by application of a thermal gradient from 15 °C to 90 °C with a 2 °C interval.
# [4] = system: HIV-1 Env-mediated cell-cell fusion (HL2/3 effector cells, TZM-bl target cells); details: for EC50: read-out: EC50 (nM) for cell-cell fusion, HL2/3 effector + TZM-bl target cells, 6 h at 37 °C, luciferase read-out, mean ± SD of three independent experiments
# Description: The inhibitory activities of these peptides on HIV-1 Env-mediated cell-cell fusion were determined as described previously. Effector cells were HL2/3 cells, which stably express HIV Gag, Env, Tat, Rev, and Nef proteins at the cell surface (contributed by Drs. Barbara Felber and George Pavlakis). TZM-bl cells, which express high levels of CD4 and coreceptors, were used as target cells (contributed by Drs. John C. Kappes and Xiaoyun Wu). HL2/3 cells and TZM-b1 cells were obtained from the NIH AIDS Reference and Reagent Program. TZM-bl cells (2.5 × 10^4/well) were plated in a 96-well plate (Corning Costar) and cultured overnight at 37 °C in 5% CO2. Thereafter, serially diluted inhibitors were added (20 μL/well), followed by the addition of HL2/3 cells (7.5 × 10^4/well). After incubation for 6 h at 37 °C in 5% CO2, fusion efficiency was determined by measuring the luciferase activity using the Luciferase Assay System (Promega, Madison, WI) on a SpectraMax M5 plate reader (Molecular Devices, Sunnyvale, CA).
# in vitro = format: cell-based; details: human; uninfected MT-2 cells, XTT assay; read-out: CC50 (half maximal cytotoxic concentration)
# Description: The cytotoxic effect of the compounds on MT-2 cells was determined using the XTT assay as described previously.
# [5] = target: T1, C34 (HIV-1 gp41 CHR peptide) (Human immunodeficiency virus type 1 group M subtype B, UniProt P04578); format: binding; details: CD, equimolar mixture 10 μM in PBS pH 7.4; θ222nm of 33000 for 100 % helicity
# [6] = target: T1, C34 (HIV-1 gp41 CHR peptide); test: Native-PAGE of N-peptides, C34 and their complexes; format: binding; details: equimolar mixture with C34, 37 °C 30 min, PBS pH 7.2, 12% Tris-glycine gel, Coomassie
# Description: Equimolar mixtures of C34 and N-peptides (80 μM in PBS, pH 7.2) were incubated at 37 °C for 30 min. After mixing with 1: 1 Tris-glycine native sample buffer (BioRad, Hercules, CA), the individual N- and C- peptides and the mixture (40 μM in PBS, pH 7.2) were loaded (25 μL in each well) onto 12% Tris-glycine gels. Gel electrophoresis was run under a constant voltage of 120 V at room temperature for 2.5 h. The gel was then stained with Coomassie blue R250.
# [7] = system: NL4-3 mutant (36G)V38A/N42T; details: read-out: EC50 against NL4-3 (36G)V38A/N42T; T20-resistant strain; MT-2 cells, p24 ELISA; mean ± SD of three independent experiments
# Description: as §1
# [8] = system: NL4-3 mutant (36G)V38E/N42S; details: read-out: EC50 against NL4-3 (36G)V38E/N42S; T20-resistant strain; MT-2 cells, p24 ELISA; mean ± SD of three independent experiments
# Description: as §1
# [9] = system: NL4-3 mutant (36G)N42T/N43K; details: read-out: EC50 against NL4-3 (36G)N42T/N43K; T20-resistant strain; MT-2 cells, p24 ELISA; mean ± SD of three independent experiments
# Description: as §1
# [10] = system: T20-sensitive and -resistant HIV-1 NL4-3 strains; details: read-out: EC50 values against both T20-sensitive and -resistant strains; range over the six NL4-3 strains of Table 2
# Description: as §1
# [11] = system: NL4-3 mutant (36G)V38A/N42D; details: read-out: EC50 against NL4-3 (36G)V38A/N42D; T20-resistant strain; MT-2 cells, p24 ELISA; mean ± SD of three independent experiments
# Description: as §1
# NL4-3 mutant (36G)V38A = details: read-out: EC50 against NL4-3 (36G)V38A; T20-resistant strain; MT-2 cells, p24 ELISA; mean ± SD of three independent experiments
# Description: as §1
# HIV-1NL4-3(D36G) = details: read-out: EC50 against NL4-3 D36G; T20-sensitive strain; MT-2 cells, p24 ELISA; mean ± SD of three independent experiments
# Description: as §1
# [12] = Metabolic stability in liver homogenate; format: in vitro ADME; details: rat liver homogenate, 20 μM, reversed-phase HPLC, UV 210 nm
# Description: (§2) Three male SD rats weighing approximately 200 g each were obtained from the Animal Center of Beijing Institute of Pharmacology & Toxicology and were used for the metabolic stability assay. Animals were treated in accordance with the Animal Welfare Act and the “Guide for the Care and Use of Laboratory Animals” (NIH Publication 86-23, revised 1985). Preparation of Samples.Calibration samples were prepared by mixing various concentrations of each test compound ranging from 4 to 150 μM in H2O with rat plasma or tissue homogenate at a volume ratio of 100 μL:100 μL (Supplementary Figs S5–S7). Each test sample (100 μL) was spiked with 100 μL of acetonitrile containing 0.1% TFA. The mixture was vortexed and centrifuged at 18,000 g for 10 min. Then, the supernatant was transferred to HPLC autosampler vials, and aliquots (10 μL) were injected into the HPLC system. […] The mobile phase was composed of solvent A (water containing 0.1% TFA) and solvent B (70% acetonitrile and 0.1% TFA). […] The HPLC analysis was performed on a Waters X-Bridge C8 column (4.6 × 250 mm, 5 μm, 300 Å) at ambient temperature upon injection of 20 μL of each standard and/or sample to obtain the chromatogram. The only exception was for (IZ14N24N)3 in plasma and kidney homogenate, which was analyzed using a Phenomenex Jupiter C4 column (4.6 × 250 mm, 5 μm, 300 Å).
# [13] = Metabolic stability in kidney homogenate; format: in vitro ADME; details: rat kidney homogenate, 20 μM, reversed-phase HPLC, UV 210 nm
# Description: as §2
# [14] = read-out: EC50 (nM) for inhibition HIV-1IIIB replication, MT-2 cells, 100 TCID50, 72 h, p24 ELISA, mean ± SD of three independent experiments
# [15] = read-out: EC50 (nM) for inhibition HIV-1BaL replication, 100 TCID50, 72 h, p24 ELISA, mean ± SD of three independent experiments
# T1 sequence (P04578 628-661): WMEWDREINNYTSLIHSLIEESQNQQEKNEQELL
substance,measurement,setting,value
Enfuvirtide,EC50,"[1]; IIIB (subtypes B, X4, 72 h)",4.9 ± 0.6 nM
same,EC50,"[2]; BaL (subtypes B, R5, 72 h)",25.2 ± 1.9 nM
"I: Ac-EQEAIKKKIEAIEKLLQLTVWGIKQLQARILAVERYLK-NH2 / II: Ac-EQEAIKKKIEAIEKLLQLTVWGIKQLQARILAVERYLK-NH2 / III: Ac-EQEAIKKKIEAIEKLLQLTVWGIKQLQARILAVERYLK-NH2 (amide I:8-III:13, I:13-II:8, II:13-III:8) [(IZ14N24C)3]",Tm (°C),[3],> 90 °C
same,Helicity (%),[3],100%
same,EC50,[1]; [14],4 ± 2.3 nM
same,EC50,[2]; [15],6.6 ± 0.2 nM
same,EC50,[4],6.4 ± 1.6 nM
same,CC50,in vitro,7700 ± 800 nM
same,Helicity (%) of the 6HBs formed between chimeric N-peptides and C34,[5],76%
"I: Ac-EQEAIKKKIEAIEKLLQLTVWGIKQLQARIL-NH2 / II: Ac-EQEAIKKKIEAIEKLLQLTVWGIKQLQARIL-NH2 / III: Ac-EQEAIKKKIEAIEKLLQLTVWGIKQLQARIL-NH2 (amide I:8-III:13, I:13-II:8, II:13-III:8) [(IZ14N17)3]",Tm (°C),[3],> 90 °C
same,Helicity (%),[3],100%
same,EC50,[1]; [14],1.9 ± 1.2 nM
same,EC50,[2]; [15],3.3 ± 2 nM
same,EC50,[4],21.9 ± 2.4 nM
same,CC50,in vitro,7300 ± 1700 nM
same,Helicity (%) of the 6HBs formed between chimeric N-peptides and C34,[5],74%
"I: Ac-IKKEQEAIKKKIEAIEKLLQLTVWGIKQLQARIL-NH2 / II: Ac-IKKEQEAIKKKIEAIEKLLQLTVWGIKQLQARIL-NH2 / III: Ac-IKKEQEAIKKKIEAIEKLLQLTVWGIKQLQARIL-NH2 (amide I:11-II:16, I:16-III:11, II:11-III:16) [(IZ17N17)3]",Tm (°C),[3],> 90 °C
same,Helicity (%),[3],98%
same,EC50,[1]; [14],4.1 ± 3.1 nM
same,EC50,[2]; [15],9 ± 0.2 nM
same,EC50,[4],46 ± 4.6 nM
same,CC50,in vitro,4000 ± 300 nM
same,Helicity (%) of the 6HBs formed between chimeric N-peptides and C34,[5],70%
"I: Ac-IKKKIEAIEKLLQLTVWGIKQLQARIL-NH2 / II: Ac-IKKKIEAIEKLLQLTVWGIKQLQARIL-NH2 / III: Ac-IKKKIEAIEKLLQLTVWGIKQLQARIL-NH2 (amide I:4-II:9, I:9-III:4, II:4-III:9) [(IZ10N17)3]",Tm (°C),[3],> 90 °C
same,Helicity (%),[3],75%
same,EC50,[1]; [14],59.4 ± 9.1 nM
same,EC50,[2]; [15],74.7 ± 6 nM
same,EC50,[4],190 ± 4.6 nM
same,fold less potency than (IZN17R)3 in cell-cell fusion,[4]; relative to (IZN17R)3,17 fold
same,CC50,in vitro,2000 ± 200 nM
same,Helicity (%) of the 6HBs formed between chimeric N-peptides and C34,[5],73%
same,complex formation with C34 in N-PAGE,[6],two bands with nearly the same density
"I: Ac-IKKKIEAIEKAIEAQQHLLQLTVWGIKQLQARIL-NH2 / II: Ac-IKKKIEAIEKAIEAQQHLLQLTVWGIKQLQARIL-NH2 / III: Ac-IKKKIEAIEKAIEAQQHLLQLTVWGIKQLQARIL-NH2 (amide I:4-II:9, I:9-III:4, II:4-III:9) [(IZ10N24N)3]",Tm (°C),[3],> 90 °C
same,Helicity (%),[3],100%
same,EC50,[1]; [14],1.8 ± 0.7 nM
same,EC50,[2]; [15],4.7 ± 0.5 nM
same,EC50,[4],28.3 ± 4.3 nM
same,CC50,in vitro,6900 ± 1000 nM
same,Helicity (%) of the 6HBs formed between chimeric N-peptides and C34,[5],80%
"I: Ac-IKKKIEAIEKLLQLTVWGIKQLQARILAVERYLK-NH2 / II: Ac-IKKKIEAIEKLLQLTVWGIKQLQARILAVERYLK-NH2 / III: Ac-IKKKIEAIEKLLQLTVWGIKQLQARILAVERYLK-NH2 (amide I:4-II:9, I:9-III:4, II:4-III:9) [(IZ10N24C)3]",Tm (°C),[3],> 90 °C
same,Helicity (%),[3],100%
same,EC50,[1]; [14],4.4 ± 0.4 nM
same,EC50,[2]; [15],11.4 ± 5.5 nM
same,EC50,[4],13.8 ± 1.5 nM
same,CC50,in vitro,2000 ± 400 nM
same,Helicity (%) of the 6HBs formed between chimeric N-peptides and C34,[5],63%
"I: Ac-EQEAIKKKIEAIEKAIEAQQHLLQLTVWGIKQLQARIL-NH2 / II: Ac-EQEAIKKKIEAIEKAIEAQQHLLQLTVWGIKQLQARIL-NH2 / III: Ac-EQEAIKKKIEAIEKAIEAQQHLLQLTVWGIKQLQARIL-NH2 (amide I:8-III:13, I:13-II:8, II:13-III:8) [(IZ14N24N)3]",Tm (°C),[3],> 90 °C
same,Helicity (%),[3],100%
same,EC50,[7],1.3 ± 0.8 nM
same,EC50,[8],1.2 ± 0.2 nM
same,EC50,[9],3.3 ± 0.1 nM
same,EC50,[10],0.7 to 3.3 nM
same,EC50,[11],2.7 ± 0.1 nM
same,EC50,NL4-3 mutant (36G)V38A,0.7 ± 0.1 nM
same,EC50,[1]; [14],0.4 ± 0.01 nM
same,EC50,HIV-1NL4-3(D36G),1.3 ± 0.2 nM
same,EC50,[2]; [15],3.2 ± 0.9 nM
same,EC50,[4],2.79 ± 0.1 nM
same,fold greater cell-cell fusion inhibitory activity than (IZ14N17)3,[4]; relative to (IZ14N17)3,about 8 fold
same,CC50,in vitro,> 20000 nM
same,Helicity (%) of the 6HBs formed between chimeric N-peptides and C34,[5],87%
same,complex formation with C34 in N-PAGE,[6],form a stable complex with C34
same,stability in liver homogenate for 24 h,[12],highly stable
same,stability in kidney homogenate for 24 h,[13],highly stable
